Assay [1] concerns the target T1, A. baumannii MsbA (Acinetobacter baumannii, UniProt A0A0B9X4I2).
T1 sequence (A0A0B9X4I2 1-575): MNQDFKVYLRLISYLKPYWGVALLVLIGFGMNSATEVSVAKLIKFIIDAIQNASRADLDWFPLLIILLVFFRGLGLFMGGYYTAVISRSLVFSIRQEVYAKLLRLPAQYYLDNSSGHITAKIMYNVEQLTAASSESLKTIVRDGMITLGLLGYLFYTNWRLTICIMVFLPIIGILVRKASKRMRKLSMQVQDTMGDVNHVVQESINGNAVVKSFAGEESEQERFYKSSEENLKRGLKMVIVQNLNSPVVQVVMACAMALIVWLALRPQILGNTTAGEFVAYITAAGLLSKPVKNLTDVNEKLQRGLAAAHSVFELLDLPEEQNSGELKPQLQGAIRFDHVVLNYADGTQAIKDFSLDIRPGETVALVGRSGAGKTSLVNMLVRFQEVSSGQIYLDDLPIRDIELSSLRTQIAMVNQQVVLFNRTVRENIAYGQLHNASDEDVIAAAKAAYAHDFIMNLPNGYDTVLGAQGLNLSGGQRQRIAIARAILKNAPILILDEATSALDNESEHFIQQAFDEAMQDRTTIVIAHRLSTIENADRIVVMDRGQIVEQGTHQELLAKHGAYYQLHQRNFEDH
Particulars: POPG nanodiscs, no TBT1.

Assay [2] deals with T1, A. baumannii MsbA. Description: ATPase activity assay. Format: biochemical. Particulars: stimulation of ATPase activity; allosteric, central substrate (LPS) binding site.

The EC50 is the concentration that produces a half-maximal response.

Turning to `Nc1ncnc2c1ncn2[C@@H]1O[C@H](COP(=O)(O)OP(=O)(O)OP(=O)(O)O)[C@@H](O)[C@H]1O` [ATP], the “ATPase activity, Michaelis-Menten kinetics” value on A. baumannii MsbA [1] was “ATPase activity of A. baumannii MsbA in nanodiscs, measured at varying ATP and TBT1 concentrations”. `O=C(Nc1sc2c(c1C(=O)O)CCCC2)c1ccc(Cl)cc1` [TBT1]: the EC50 on A. baumannii MsbA [2] was roughly 13 µM.

Values taken from PMC9109178 (Science (New York, N.Y.), 2021).
